Columns and labels:
[1] = tested on: SARS-CoV-2; experiment: Antiviral assay in Vero E6 cells, immunofluorescence of nucleocapsid protein; assay type: cell-based; details: 72 h post infection; for IC50: immunofluorescence, MOI 0.1, read-out: IC50, inhibition of SARS-CoV-2 replication
[2] = blood of patients in both clinical studies; cited from earlier work
[3] = tested on: SARS-CoV-2; details: Vero E6 cells; famotidine 0.32–200 µM; remdesivir 0.1–62.5 µM
[4] = tested on: SARS-CoV-2; experiment: Antiviral assay in human lung A549 cells (ACE2, TMPRSS2), immunofluorescence of nucleocapsid protein; assay type: cell-based; details: human lung A549 cells expressing ACE2 and TMPRSS2
[5] = tested on: SARS-CoV-2; experiment: Viral RNA by qRT-PCR in culture medium of human lung A549 cells; assay type: cell-based
[6] = tested on: hospitalized COVID-19 patients; details: 1620 patients; total median dose of 136 mg, oral or IV once daily, 6 days; cited from earlier work
[7] = tested on: SARS-CoV-2; experiment: Viral RNA by qRT-PCR in culture medium of Vero E6 cells; assay type: cell-based
[8] = tested on: non-hospitalized patients; details: 10 non-hospitalized patients; oral 240 mg per day for a median of 11 days; cited from earlier work
[9] = tested on: Vero E6 cells
[10] = in vitro; details: human
[11] = tested on: human lung A549 cells

| SMILES | inhibition of SARS-CoV-2 replication (in words) ([1]; concentrations of up to 200 μM) | peak plasma concentrations [2] [µM] | antiviral effect on virus yield (plaque formation) [3] | inhibition of SARS-CoV-2 replication (in words) ([4]; 0.32–200 µM, 72 h) | effect on viral RNA copies (qRT-PCR, E gene) [5] | risk of death or intubation [6] | effect on viral RNA copies (qRT-PCR, E gene) [7] | patient-reported symptoms such as shortness of breath and cough [8] | IC50 ([1]; Severe acute respiratory syndrome coronavirus 2, Vero C1008, 72 h) [µM] | IC50 [1] [µM] | cytotoxicity (in words) [9] | IC50 ([4]; Severe acute respiratory syndrome coronavirus 2, immunofluorescence, 72 h post infection, MOI 0.1, read-out: IC50, inhibition of SARS-CoV-2 replication) [µM] | CC50 [10] [µM] | cytotoxicity (in words) [11] |
| --- | --- | --- | --- | --- | --- | --- | --- | --- | --- | --- | --- | --- | --- | --- |
| NC(N)=Nc1nc(CSCCC(N)=NS(N)(=O)=O)cs1 [Famotidine] | did not produce any measurable inhibition | 0.5 to 2 | no effect on limiting virus plaque formation | no measurable effect | no effect | reduced risk of death or intubation | no effect | patient-reported improvements in symptoms | – | – | – | – | – | – |
| CCC(CC)COC(=O)[C@H](C)N[P@](=O)(OC[C@H]1O[C@@](C#N)(c2ccc3c(N)ncnn23)[C@H](O)[C@@H]1O)Oc1ccccc1 [Remdesivir, remdesivir] | – | – | dose-dependent antiviral effect | – | dose-dependent | – | dose-dependent | – | 3.3 | 3.37 | dose-dependent cytotoxicity at higher concentrations | 0.43 | 14.6 | dose-dependent cytotoxicity at higher concentrations |
